Data as given in patent publication US20100249064A1, “METHODS AND COMPOSITIONS FOR TREATING DISEASES AND CONDITIONS INVOLVING HIGHER MOLECULAR WEIGHT HYALURONAN” (University of Chicago, priority 2007, published 2010).

Test system: Human pulmonary EC
Assay: Atomic Force Microscopy of EC morphology and lipid rafts
Type: cell-based
Conditions: 100 nM high MW HA
Description: Atomic Force Microscopy. The protocols/procedures for AFM analysis of 50 to 100 nm pits (CEM, lipid rafts), EC height and force measurements were previously described in detail (Dvorak, 2003, Reich et al., 2001, Henderson et al., 2004, Milhiet et. al., 2004, Miklaszewska, 2004, Lucius, 2003). EC treated with various siRNAs or treated with MβCD with or without 100 nM high MW HA (0, 15, 30, 60 min.) were fixed in 4% glutaraldehyde and analyzed in tapping mode on a DI multimode AFM (Digital Instruments, Santa Barbara, Calif.) using a V-shaped oxide-sharpened silicon nitride cantilever with an optical scanning speed of ˜1.0 Hz to obtain a surface topology map which was quantitated and spatially defined using Metamorph™ software. For live cells, GFP and GFP-caveolin-1 expressing EC were treated with or without 100 nM high MW HA in a DI Bioscope cell chamber (Digital Instruments, Santa Barbara, Calif.) were exposed to tapping mode AFM with concurrent fluorescence scanning and images were obtained using a C5985 chilled CCD camera (Hamamatsu Photonics Systems, Bridgewater, N.J.).

In the case of hyaluronan [HMW-HA], the “EC morphological changes (AFM)” value is reported as “caused dramatic morphological changes including increased thickening of EC junctions” and the “total number of lipid raft-like structures (AFM)” value is reported as “did not change”.
